Test results taken from PubChem BioAssay (NCI).
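Growth conditions: 96-well plates. Treatment: test compound, 48 hours, 5 concentrations. Analysis: linear interpolation between bracketing concentrations; unreached endpoints set to highest concentration. GI50 is the concentration that inhibits growth by half. TGI denotes the concentration required for complete inhibition of growth.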

Assays:
Test in all cases: NCI tumour cell line growth inhibition, 48 h
[1] = system: 786-0 renal
[2] = system: A498 renal
[3] = system: A549 NSCLC
[4] = system: ACHN renal
[5] = system: CAKI-1 renal
[6] = system: CCRF-CEM leukemia
[7] = system: COLO 205 colon
[8] = system: DU-145 prostate
[9] = system: EKVX NSCLC
[10] = system: HCC-2998 colon
[11] = system: HCT-116 colon
[12] = system: HCT-15 colon
[13] = system: HL-60(TB) leukemia
[14] = system: HOP-62 NSCLC
[15] = system: HS 578T breast
[16] = system: HT29 colon
[17] = system: IGROV1 ovarian
[18] = system: K-562 leukemia
[19] = system: KM12 colon
[20] = system: M14 melanoma
[21] = system: MALME-3M melanoma
[22] = system: MCF7 breast
[23] = system: MDA-MB-231 breast
[24] = system: MDA-MB-435
[25] = system: MDA-N
[26] = system: MOLT-4 leukemia
[27] = system: NCI-H226 lung
[28] = system: NCI-H23 lung
[29] = system: NCI-H460 lung
[30] = system: NCI-H522 lung
[31] = system: NCI/ADR-RES ovarian
[32] = system: OVCAR-3 ovarian
[33] = system: OVCAR-4 ovarian
[34] = system: OVCAR-5 ovarian
[35] = system: OVCAR-8 ovarian
[36] = system: PC-3 prostate
[37] = system: RPMI-8226 leukemia
[38] = system: RXF 393 renal
[39] = system: SF-268 CNS
[40] = system: SF-295 CNS
[41] = system: SF-539 CNS
[42] = system: SK-MEL-2 melanoma
[43] = system: SK-MEL-28 melanoma
[44] = system: SK-MEL-5 melanoma
[45] = system: SK-OV-3 ovarian
[46] = system: SN12C renal
[47] = system: SNB-19 CNS
[48] = system: SNB-75 CNS
[49] = system: SR leukemia
[50] = system: SW-620 colon
[51] = system: T-47D breast
[52] = system: TK-10 renal
[53] = system: UACC-257 melanoma
[54] = system: UACC-62 melanoma
[55] = system: UO-31 renal
[56] = system: LOX IMVI melanoma
[57] = system: U251 CNS

CN(C)C=Nc1ccc2nonc2c1
TGI [1]: > 100 µM | TGI [2]: > 100 µM | TGI [3]: > 100 µM | TGI [4]: > 100 µM | TGI [5]: > 100 µM | TGI [6]: > 100 µM | TGI [7]: > 100 µM | TGI [8]: > 100 µM | TGI [9]: > 100 µM | TGI [10]: > 100 µM | TGI [11]: > 100 µM | TGI [12]: > 100 µM | TGI [13]: > 100 µM | TGI [14]: > 100 µM | TGI [15]: > 100 µM | TGI [16]: > 100 µM | TGI [17]: > 100 µM | TGI [18]: > 100 µM | TGI [19]: > 100 µM | TGI [20]: > 100 µM | TGI [21]: > 100 µM | TGI [22]: > 100 µM | TGI [23]: > 100 µM | TGI [24]: > 100 µM | TGI [25]: > 100 µM | TGI [26]: > 100 µM | TGI [27]: > 100 µM | TGI [28]: > 100 µM | TGI [29]: > 100 µM | TGI [30]: > 100 µM | TGI [31]: > 100 µM | TGI [32]: > 100 µM | TGI [33]: > 100 µM | TGI [34]: > 100 µM | TGI [35]: > 100 µM | TGI [36]: > 100 µM | TGI [37]: > 100 µM | TGI [38]: > 100 µM | TGI [39]: > 100 µM | TGI [40]: > 100 µM | TGI [41]: > 100 µM | TGI [42]: > 100 µM | TGI [43]: > 100 µM | TGI [44]: > 100 µM | TGI [45]: > 100 µM | TGI [46]: > 100 µM | TGI [47]: > 100 µM | TGI [48]: > 100 µM | TGI [49]: > 100 µM | TGI [50]: > 100 µM | TGI [51]: > 100 µM | TGI [52]: > 100 µM | TGI [53]: > 100 µM | TGI [54]: > 100 µM | TGI [55]: > 100 µM

CCC1=C(C)c2cc3[n-]c(cc4nc(c(C=O)c5[n-]c(cc1n2)c(C)c5CC)C(C)=C4CC)c(C)c3CC.[Ni+2]
GI50 [1]: > 100 µM | TGI [1]: > 100 µM | GI50 [2]: > 100 µM | TGI [2]: > 100 µM | GI50 [4]: > 100 µM | TGI [4]: > 100 µM | GI50 [6]: > 100 µM | TGI [6]: > 100 µM | GI50 [7]: > 100 µM | TGI [7]: > 100 µM | GI50 [8]: > 100 µM | TGI [8]: > 100 µM | GI50 [10]: > 100 µM | TGI [10]: > 100 µM | GI50 [11]: > 100 µM | TGI [11]: > 100 µM | GI50 [12]: > 100 µM | TGI [12]: > 100 µM | GI50 [13]: > 100 µM | TGI [13]: > 100 µM | GI50 [14]: > 100 µM | TGI [14]: > 100 µM | GI50 [15]: > 100 µM | TGI [15]: > 100 µM | GI50 [16]: > 100 µM | TGI [16]: > 100 µM | GI50 [17]: > 100 µM | TGI [17]: > 100 µM | GI50 [18]: > 100 µM | TGI [18]: > 100 µM | GI50 [19]: > 100 µM | TGI [19]: > 100 µM | GI50 [56]: > 100 µM | TGI [56]: > 100 µM | GI50 [20]: > 100 µM | TGI [20]: > 100 µM | GI50 [21]: > 100 µM | TGI [21]: > 100 µM | GI50 [22]: > 100 µM | TGI [22]: > 100 µM | GI50 [23]: > 100 µM | TGI [23]: > 100 µM | GI50 [24]: > 100 µM | TGI [24]: > 100 µM | GI50 [25]: > 100 µM | TGI [25]: > 100 µM | GI50 [26]: > 100 µM | TGI [26]: > 100 µM | GI50 [27]: > 100 µM | TGI [27]: > 100 µM | GI50 [28]: > 100 µM | TGI [28]: > 100 µM | GI50 [29]: > 100 µM | TGI [29]: > 100 µM | GI50 [30]: > 100 µM | TGI [30]: > 100 µM | GI50 [31]: > 100 µM | TGI [31]: > 100 µM | GI50 [32]: > 100 µM | TGI [32]: > 100 µM | GI50 [33]: > 100 µM | TGI [33]: > 100 µM | GI50 [34]: > 100 µM | TGI [34]: > 100 µM | GI50 [35]: > 100 µM | TGI [35]: > 100 µM | GI50 [36]: > 100 µM | TGI [36]: > 100 µM | GI50 [37]: > 100 µM | TGI [37]: > 100 µM | GI50 [38]: > 100 µM | TGI [38]: > 100 µM | GI50 [39]: > 100 µM | TGI [39]: > 100 µM | GI50 [40]: > 100 µM | TGI [40]: > 100 µM | GI50 [41]: > 100 µM | TGI [41]: > 100 µM | GI50 [42]: > 100 µM | TGI [42]: > 100 µM | GI50 [43]: > 100 µM | TGI [43]: > 100 µM | GI50 [45]: > 100 µM | TGI [45]: > 100 µM | GI50 [46]: > 100 µM | TGI [46]: > 100 µM | GI50 [47]: > 100 µM | TGI [47]: > 100 µM | GI50 [48]: 93.6 µM | TGI [48]: > 100 µM | GI50 [49]: 0.022 µM | TGI [49]: > 100 µM | GI50 [50]: > 100 µM | TGI [50]: > 100 µM | GI50 [51]: > 100 µM | TGI [51]: > 100 µM | GI50 [52]: > 100 µM | TGI [52]: > 100 µM | GI50 [57]: > 100 µM | TGI [57]: > 100 µM | GI50 [53]: > 100 µM | TGI [53]: > 100 µM | GI50 [54]: > 100 µM | TGI [54]: > 100 µM | GI50 [55]: > 100 µM | TGI [55]: > 100 µM
